What all share (format): in vivo
The test system of test [1] is Zymoseptoria tritici (the causal agent of wheat leaf blotch). Put plainly: Test D: preventive spray on wheat seedlings, disease rating (100 = 100% control; * 50 ppm, ** 10 ppm, *** 250 ppm). To be noted: 250 ppm test suspension, 100 = 100% disease control; for pest or weed control at 250 ppm: Zymoseptoria tritici. From the text: (§1) General protocol for preparing test suspensions for Tests A-E: the test compounds were first dissolved in acetone in an amount equal to 3% of the final volume and then suspended at the desired concentration (in ppm) in acetone and purified water (50/50 mix by volume) containing 250 ppm of the surfactant […] (polyhydric alcohol esters). The resulting test suspensions were then used in Tests A-E.
The test solution was sprayed to the point of run-off on wheat seedlings. The following day the seedlings were inoculated with a spore suspension of Zymoseptoria tritici (the causal agent of wheat leaf blotch) and incubated in a saturated atmosphere at 24° C. for 48 h, and then moved to a growth chamber at 20° C. for 17 days, after which time disease ratings were made.
(§2) Results for Tests A-E are given in Table A. In the Table, a rating of 100 indicates 100% disease control and a rating of 0 indicates no disease control (relative to the controls). An asterisk “*” or a double asterisk “**” or a triple asterisk “***” next to the rating value indicates a 50 ppm, 10 ppm and 250 ppm test suspension was used, respectively. A dash (-) indicates the compound was not tested.

For test [2], the system named is Blumeria graminis f. sp. tritici (the causal agent of wheat powdery mildew). Put plainly: Test E: preventive spray on wheat seedlings, visual disease rating (100 = 100% control; * 50 ppm, ** 10 ppm, *** 250 ppm). To be noted: 250 ppm test suspension, 100 = 100% disease control; for pest or weed control at 250 ppm: Blumeria graminis.
Description: as §1
The test suspension was sprayed to the point of run-off on wheat seedlings. The following day the seedlings were inoculated with a spore dust of Blumeria graminis f. sp. tritici, (also known as Erysiphe graminis f. sp. tritici, the causal agent of wheat powdery mildew) and incubated in a growth chamber at 20° C. for 8 days, after which time visual disease ratings were made.
as §2

The test system of test [3] is Phakopsora pachyrhizi (the causal agent of Asian soybean rust). In words: Test A: preventive spray on soybean seedlings, visual disease rating (100 = 100% control; * 50 ppm, ** 10 ppm, *** 250 ppm). To be noted: 100 = 100% disease control. In a few lines:
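Soybean seedlings sprayed to run-off with compound suspended in acetone/water with 250 ppm PEG400 surfactant, inoculated next day with P. pachyrhizi spores. Kept 24 h saturated at 22 °C, then 8 days at 22 °C before visual rating of disease control (0-100) relative to controls.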

In test [4] the test system is Puccinia recondita f. sp. tritici (the causal agent of wheat leaf rust). In words: Test B: preventive spray on wheat seedlings, disease rating (100 = 100% control; * 50 ppm, ** 10 ppm, *** 250 ppm). To be noted: 100 = 100% disease control; for pest or weed control at 250 ppm: 250 ppm test suspension. In a few lines:
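Wheat seedlings sprayed to run-off with compound in acetone/water (50/50) containing 250 ppm PEG400, inoculated next day with Puccinia recondita f. sp. tritici spores. Held 24 h saturated at 20° C, then 6 days at 20° C; disease control rated 0–100 relative to controls.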

In test [5] the test system is Phakopsora pachyrhizi (the causal agent of Asian soybean rust). In words: Test F: Compound 32 or 64 alone and in mixtures on soybean seedlings, observed (Obsd) and Colby expected (Exp) disease control. As to conditions: Phakopsora pachyrhizi; for pest or weed control at 0.303 ppm: Compound 64 0.303 ppm alone; for pest or weed control at 0.489 ppm: Compound 64 0.489 ppm alone. From the text:
The general protocol for preparing test compositions for Test F was as follows: Compound 32, Compound 64, azoxystrobin, benzovindiflupyr, bixafen, chlorothalonil, cyproconazole, epoxiconazole, fenpropidin, fenpropimorph, fluindapyr, flutriafol, fluxapyroxad, metominostrobin, picoxystrobin, prothioconazole, pydiflumetofen, pyraclostrobin, tebuconazole and trifloxystrobin were obtained as unformulated, technical-grade materials. Copper hydroxide and mancozeb was obtained as a formulated product marketed under the trademarks KOCIDE 3000 and MANZATE, respectively. Unformulated materials were first dissolved in acetone and then suspended at the desired concentration (in ppm) in acetone and purified water (50/50 mix by volume) containing 250 ppm of the surfactant Trem® 014 (polyhydric alcohol esters). Formulated materials were dispersed in sufficient water to give the desired concentration, and neither organic solvent nor surfactant was added to the suspension. The resulting test mixtures were then used in Test F. The tests were run on four individual plants and the results reported as the mean average of the four plants.
The presence of a synergistic effect between two active ingredients was established with the aid of the Colby equation (see Colby, S. R. “Calculating Synergistic and Antagonistic Responses of Herbicide Combinations”, Weeds, (1967), 15, 20-22):
Using the method of Colby, the presence of a synergistic interaction between two active ingredients is established by first calculating the predicted activity, p, of the mixture based on activities of the two components applied alone. If p is lower than the experimentally established effect, synergism has occurred. In the equation above, A is the fungicidal activity in percentage control of one component applied alone at rate x. The B term is the fungicidal activity in percentage control of the second component applied at rate y. The equation estimates p, the expected fungicidal activity of the mixture of A at rate x with B at rate y if their effects are strictly additive and no interaction has occurred.
The test mixture was sprayed to the point of run-off on soybean seedlings. The following day the seedlings were inoculated with a spore suspension of Phakopsora pachyrhizi (the causal agent of Asian soybean rust) and incubated in a saturated atmosphere at 22° C. for 24 h and then moved to a growth chamber at 22° C. for 8 days, after which time visual disease ratings were made.
Results for Test F are given in Tables B-1 through I-1 for Compound 32 and Tables B-2 through I-2 for Compound 64. Each table corresponds to a set of evaluations performed together at the same time. In each table, a rating of 100 indicates 100% disease control and a rating of 0 indicates no disease control (relative to the controls). Columns labeled “Obsd” indicate the average of results observed from test run on four individual plants. Columns labeled “Exp” indicate the expected value for each treatment mixture using the Colby equation.

Where [6] appears, read: 10 ppm test suspension, 0 = no control.
The mark [7] stands for this setting: 50 ppm test suspension, 0 = no control.
Setting [8] is: Puccinia recondita, wheat seedlings.
[9] abbreviates: 10 ppm test suspension, soybean seedlings.
Where [10] appears, read: 10 ppm test suspension, wheat seedlings.

Marks after values point to notes of the source that are not given here.

Take `CCOC(=O)c1cnn(Cc2ccc(OCC(O)(O)C(F)(F)F)c(F)c2)c1` [Compound 264]: the “Test D disease control rating” value in test [1] (0 = no control) is recorded as 95*** %. In addition, the “Test E disease control rating” value in test [2] (0 = no control) is listed as 96*** %. In addition, in test [3] (setting [6]), the “Test A disease control rating” value was determined as 99%. Further, the “Test B disease control rating” value in test [4] (setting [6]) came out at 80%.

As for `CCOC(=O)c1cnn(Cc2ccc(N(C#N)CC(O)(O)C(F)(F)F)cc2)c1` [compound 381], the “Test D disease control rating” value in test [1] (0 = no control) is listed as 0*** %. Further, the “Test E disease control rating” value in test [2] (0 = no control) was 69*** %. The “Test A disease control rating” value in test [3] (setting [6]) was determined as 25%. Besides, in test [4] (setting [6]), the “Test B disease control rating” value was 28%.

As for `O=[N+]([O-])c1ccc(OCC(O)(O)C(F)(F)F)cc1` [compound 280], the “Test D disease control rating” value in test [1] (0 = no control) was 99*** %. The “Test E disease control rating” value in test [2] (0 = no control) is 99*** %. Further, the “Test A disease control rating” value in test [3] (setting [7]) is listed as 100%. Besides, the “Test B disease control rating” value in test [4] (setting [7]) came to 100%.

Take `CCOC(=COc1ccc(NC(=O)c2ccccc2F)cc1)C(F)(F)F` [compound 461]: the “Test D disease control rating” value in test [1] (0 = no control) is reported as 53*** %. Moreover, the “Test E disease control rating” value in test [2] (0 = no control) is listed as 69*** %. Besides, in test [3] (setting [7]), the “Test A disease control rating” value was found to be 0%. For the same molecule, the “Test B disease control rating” value in test [4] (setting [7]) turned out to be 0%.

One may read the pest or weed control as how far the test organism was held down. With `CCOC(=O)c1cnn(Cc2ccc(O/C=C(\OCC)C(F)(F)F)cc2)c1` [Compound 64, ethyl 1-[[4-[[(1Z)-2-ethoxy-3,3,3-trifluoro-1-propen-1-yl]oxy]phenyl]methyl]-1H-pyrazole-4-carboxylate], the values for the pest or weed control at 250 ppm in test [1] (wheat seedlings), in test [2] (wheat seedlings) and in test [4] (setting [8]) were 73%, 99% and 99%, respectively. The pest or weed control at 0.303 ppm is 53% in test [5] (Table B-2); 34% in test [5] (Table C-2); 49% in test [5] (Table D-2); 78% in test [5] (Table E-2); 37% in test [5] (Table F-2); 52% in test [5] (Table G-2). Moreover, the pest or weed control at 0.303 ppm in test [5] (Table H-2) and in test [5] (Table I-2) was 50% throughout. In addition, the pest or weed control at 0.489 ppm in test [5] (Table B-2) stood at 68%; in test [5] (Table C-2) it was 63%; in test [5] (Table D-2), 63%; in test [5] (Table E-2), 77%; in test [5] (Table F-2), 68%; in test [5] (Table G-2), 50%. Besides, the pest or weed control at 0.489 ppm in test [5] (Table H-2) stood at 70%; in test [5] (Table I-2), 81%.

Consider `CC(=O)N1CC(c2ccc(OCC3(C(F)(F)F)OCCO3)cc2)C1` [compound 372], for which the “Test D disease control rating” value in test [1] (0 = no control) was 99*** %. For the same molecule, the “Test E disease control rating” value in test [2] (0 = no control) is listed as 99*** %. Also, the “Test A disease control rating” value in test [3] (setting [7]) turned out to be 97%. Further, the “Test B disease control rating” value in test [4] (setting [7]) was 28%.

`CC(=O)N1CC(c2ccc(OCC(O)(O)C(F)(F)F)cc2)C1` [compound 384]: the “Test D disease control rating” value in test [1] (0 = no control) is given as 48*** %. For the same molecule, the “Test E disease control rating” value in test [2] (0 = no control) was 87*** %. Further, in test [3] (setting [7]), the “Test A disease control rating” value turned out to be 99%. In addition, the “Test B disease control rating” value in test [4] (setting [7]) came to 83%.

As to `CCOC(=O)c1cnn(Cc2ccc(OCC(O)(O)C(F)(F)F)cc2)c1` [Compound 1, ethyl 1-[[4-(3,3,3-trifluoro-2,2-dihydroxypropoxy)phenyl]methyl]-1H-pyrazole-4-carboxylate], the pest or weed control at 250 ppm stood at 97% in test [1] (wheat seedlings), 81% in test [2] (wheat seedlings) and 91% in test [4] (setting [8]).

Regarding `CCOC(=O)c1cnn(Cc2ccc(O/C=C(\OCC)C(F)(F)F)c(I)c2)c1` [compound 374], the “Test D disease control rating” value in test [1] (0 = no control) is reported as 0*** %. Further, the “Test E disease control rating” value in test [2] (0 = no control) is given as 76*** %. Besides, the “Test A disease control rating” value in test [3] (setting [7]) amounted to 0%. Moreover, the “Test B disease control rating” value in test [4] (setting [7]) was found to be 0%.

Regarding `CCOC(=O)c1cnn(Cc2ccc(OCC(O)(O)C(F)(F)F)c(Cl)c2)c1` [Compound 459], the “Test D disease control rating” value in test [1] (0 = no control) was 37*** %. Further, the “Test E disease control rating” value in test [2] (0 = no control) is on record as 0*** %. Besides, the “Test A disease control rating” value in test [3] (setting [7]) amounted to 100%. In addition, the “Test B disease control rating” value in test [4] (setting [7]) worked out at 97%.

`CCOC(=O)c1cnn(COc2cccc(OCC(O)(O)C(F)(F)F)c2)c1` [compound 320]: the pest or weed control at 250 ppm in test [1] (0 = no control) was found to be 81%; in test [2] (0 = no control) it was 91%. For the same molecule, the pest or weed control at 10 ppm in test [3] (Phakopsora pachyrhizi, 10 ppm test suspension, 0 = no control) turned out to be 89%; in test [4] (Puccinia recondita, 10 ppm test suspension, 0 = no control) it was 68%.

Regarding `CCO/C(=C\Oc1ccc(Cn2cc(C(=O)OCC(=O)c3ccccc3)cn2)cc1)C(F)(F)F` [compound 244], the “Test D disease control rating” value in test [1] (wheat seedlings) is given as 0*** %. In addition, the “Test E disease control rating” value in test [2] (wheat seedlings) is 0*** %. Besides, the “Test A disease control rating” value in test [3] (setting [9]) amounted to 100%. Also, the “Test B disease control rating” value in test [4] (setting [10]) was 0%.

With `CCS(=O)(=O)Cc1ccc(OCC(O)(O)C(F)(F)F)cc1` [compound 29], in test [1] (wheat seedlings), the “Test D disease control rating” value was 0*** %. The “Test E disease control rating” value in test [2] (wheat seedlings) is recorded as 79*** %. In test [3] (setting [9]), the “Test A disease control rating” value worked out at 84%. Also, the “Test B disease control rating” value in test [4] (setting [10]) stood at 28%.

As for `COC(=O)c1ccc(OCC(O)(O)C(F)(F)F)cc1` [Compound 229, methyl 4-(3,3,3-trifluoro-2,2-dihydroxypropoxy)phenylcarboxylate], the pest or weed control at 250 ppm in test [1] (wheat seedlings) was determined as 96%; in test [2] (wheat seedlings), 99%. For the same molecule, the pest or weed control at 50 ppm in test [4] (Puccinia recondita, 50 ppm test suspension, wheat seedlings) stood at 100%.

Source of the values: patent US20240122180A1, “FUNGICIDAL HALOMETHYL KETONES AND HYDRATES AND THEIR MIXTURES” (FMC Corporation, priority 2020, published 2024).
